Laboratory results reported in PMC10724690, “Deciphering specificity and cross-reactivity in tachykinin NK1 and NK2 receptors” (The Journal of Biological Chemistry, 2023).
Where no end group is shown, it is not given here.

Legend:
[1] = target: T1, NK2R (Homo sapiens, UniProt P21452); assay: IP3 (IP accumulation) assay, wildtype NK2R; format: cell-based; conditions: for Emax: Fig 3a, alanine scan of NKA, dose response, IP accumulation ([3H]inositol, SPA) in transfected COS7 cells, 10 mM LiCl, 150 min 37 °C, four-parameter fit
T1 construct: host or cells: COS7
T1 sequence (P21452 1-398): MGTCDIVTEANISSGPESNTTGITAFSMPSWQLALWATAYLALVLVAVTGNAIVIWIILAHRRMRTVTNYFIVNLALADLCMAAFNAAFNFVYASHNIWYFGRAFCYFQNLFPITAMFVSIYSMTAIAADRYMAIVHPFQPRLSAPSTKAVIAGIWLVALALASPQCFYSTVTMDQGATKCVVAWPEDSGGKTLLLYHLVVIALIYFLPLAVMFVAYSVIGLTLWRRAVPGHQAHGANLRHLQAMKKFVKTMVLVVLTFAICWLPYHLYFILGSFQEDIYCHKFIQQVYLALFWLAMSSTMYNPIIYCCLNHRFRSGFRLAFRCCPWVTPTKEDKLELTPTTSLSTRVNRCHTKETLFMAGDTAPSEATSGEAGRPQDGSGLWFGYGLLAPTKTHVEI
Protocol: (§1) COS7 cells (derived from African green monkey kidney fibroblast and originally bought from ThermoFisher) were maintained in Dulbecco´s Modified Eagle´s Medium 1885 with GlutaMAX supplemented with 10% fetal bovine serum (Sigma-Aldrich), 100 units/ml penicillin and 100 μg/ml streptomycin at 37 °C with 10% CO2. COS7 cells were plated in either clear-, white-, or white with clear bottom 96-well plates that were coated with poly-D-lysine (Sigma-Aldrich) 30 min prior to cell seeding (20.000 cells/well). The following day plates were transiently transfected using calcium precipitation with 200 ng/well DNA in a culture medium with the addition of 100 μM (final concentration) Chloroquine. Transfection was stopped 5 h later with the addition of a fresh maintenance medium. Fig. […] COS7 cells seeded in clear 96-well plates were incubated with 0.5 μCi/ml myo [3H]inositol (PerkinElmer) in 100 μl growth medium over night following the transfection. The subsequent day cells were washed twice with 200 μl/well HBSS (GIBCO, Life Technologies) and pre-incubated for 5 min at 37 °C with 100 μl/well HBSS buffer supplemented with 10 mM LiCl. Ligand addition was followed by 150 min incubation at 37 °C. To stop ligand incubation, cells were lysed with 40 μl 10 mM formic acid followed by 30 min incubation on ice. 35 μl of the lysate was transferred to white 96-well plates together with 60 μl of 1:8 diluted YSi SPA scintillation beads (PerkinElmer). Plates were sealed and vigorously shaken for 15 min followed by 5 min centrifugation at 1500 rpm. Measurements (scintillation) were recorded on a Microbeta (PerkinElmer) after a 4 h delay and determinations were made in duplicates. All dose-response curves have been calculated using Prism 10 software (GraphPad Software) non-linear regression with four parameters. All data are shown as mean ± SEM unless stated otherwise and consist of two technical replicates from three biological replicates.

[2] = target: T2, NK1R-R177K (Homo sapiens, UniProt P25103, R177K); assay: BRET-based cAMP assay, NK1R-R177K; format: cell-based; conditions: COS-7
T2 construct: host or cells: COS7
Protocol: (§2) COS7 cells (derived from African green monkey kidney fibroblast and originally bought from ThermoFisher) were maintained in Dulbecco´s Modified Eagle´s Medium 1885 with GlutaMAX supplemented with 10% fetal bovine serum (Sigma-Aldrich), 100 units/ml penicillin and 100 μg/ml streptomycin at 37 °C with 10% CO2. COS7 cells were plated in either clear-, white-, or white with clear bottom 96-well plates that were coated with poly-D-lysine (Sigma-Aldrich) 30 min prior to cell seeding (20.000 cells/well). The following day plates were transiently transfected using calcium precipitation with 200 ng/well DNA in a culture medium with the addition of 100 μM (final concentration) Chloroquine. Transfection was stopped 5 h later with the addition of a fresh maintenance medium. Fig. […] The intracellular level of cAMP was monitored in real-time using bioluminescence resonance energy transfer (BRET). This was achieved by implementing a construct consisting of a cAMP binding protein (Exchange protein activated by cAMP (Epac)) which has been flanked by a BRET pair consisting of Renilla luciferase (Rluc) and yellow fluorescent protein (YFP). […] The BRET signal was calculated as the ratio of emission intensity at 535 nm (citrine) to the emission intensity at 475 nm (luciferase). […] All dose-response curves have been calculated using Prism 10 software (GraphPad Software) non-linear regression with four parameters. […]

[3] = target: T3, NK1R-R177Q (Homo sapiens, UniProt P25103, R177Q); assay: IP3 activation assay, NK1R-R177Q; format: cell-based; conditions: COS-7
T3 construct: host or cells: COS7
Protocol: as §1, with “Ligand addition was followed by 150 min incubation at 37 °C. To stop ligand incubation, cells were lysed with 40 μl 10 mM formic acid followed by 30 min incubation on ice. 35 μl of the lysate was transferred to white 96-well plates together with 60 μl of 1:8 diluted YSi SPA scintillation beads (PerkinElmer). Plates were sealed and vigorously shaken for 15 min followed by 5 min centrifugation at 1500 rpm.” left out, “All data are shown as mean ± SEM unless stated otherwise and consist of two technical replicates from three biological replicates.” left out

[4] = target: T3, NK1R-R177Q; assay: BRET-based cAMP assay, NK1R-R177Q; format: cell-based; conditions: COS-7
Protocol: as §2

[5] = target: T4, NK1R (Homo sapiens, UniProt P25103); assay: IP3 (IP accumulation) assay, wildtype NK1R; format: cell-based
T4 construct: host or cells: COS7
Protocol: as §1, with “Ligand addition was followed by 150 min incubation at 37 °C. To stop ligand incubation, cells were lysed with 40 μl 10 mM formic acid followed by 30 min incubation on ice. 35 μl of the lysate was transferred to white 96-well plates together with 60 μl of 1:8 diluted YSi SPA scintillation beads (PerkinElmer). Plates were sealed and vigorously shaken for 15 min followed by 5 min centrifugation at 1500 rpm.” left out, “All data are shown as mean ± SEM unless stated otherwise and consist of two technical replicates from three biological replicates.” left out

[6] = target: T4, NK1R; assay: BRET-based cAMP assay, wildtype NK1R; format: cell-based; conditions: COS-7, Fig 7d, NK1R WT, ligand NKA (by identity with Fig 5b values)
Protocol: as §2

[7] = target: T1, NK2R; conditions: ref [19], cited from earlier work
Excerpt: In sharp contrast, NKA-D4 and NKA6-10 are found to be critical for activity.

T4 sequence (P25103 whole entry): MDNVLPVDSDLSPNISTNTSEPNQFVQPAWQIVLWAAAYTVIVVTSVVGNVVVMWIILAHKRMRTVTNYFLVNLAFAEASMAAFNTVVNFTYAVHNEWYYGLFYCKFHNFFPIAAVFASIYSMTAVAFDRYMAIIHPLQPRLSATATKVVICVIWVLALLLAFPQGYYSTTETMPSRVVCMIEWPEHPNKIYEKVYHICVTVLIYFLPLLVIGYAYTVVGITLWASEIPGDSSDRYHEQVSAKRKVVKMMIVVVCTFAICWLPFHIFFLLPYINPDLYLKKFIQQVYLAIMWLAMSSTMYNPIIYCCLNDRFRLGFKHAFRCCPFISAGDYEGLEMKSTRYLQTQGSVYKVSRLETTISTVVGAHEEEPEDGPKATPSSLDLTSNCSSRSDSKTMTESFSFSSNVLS
T3 sequence (P25103 whole entry R177Q): as the sequence (P25103 whole entry) above, with R177Q counted along it
T2 sequence (P25103 whole entry R177K): as the sequence (P25103 whole entry) above, with R177K counted along it

Compound	EC50 [1] [nM]	Emax [1]	also measured
HKADSFVGLM-NH2 [Ala3]	0.598		
CSCC[C@H](NC(=O)[C@H](CC(C)C)NC(=O)CNC(=O)[C@@H](NC(=O)[C@H](Cc1ccccc1)NC(=O)[C@H](CO)NC(=O)[C@H](CC(=O)O)NC(=O)[C@@H](NC(=O)[C@H](CCCCN)NC(=O)[C@H](C)N)[C@@H](C)O)C(C)C)C(N)=O [Ala1]	0.715		
Ala4: NKA variant of the alanine scan, alanine in position 4 (Asp) (HKTASFVGLM; ends and bridges not checked; UniProt P20366 98-107, looked up, variant D4A)		1066	
CSCC[C@H](NC(=O)[C@H](CC(C)C)NC(=O)CNC(=O)[C@@H](NC(=O)[C@H](Cc1ccccc1)NC(=O)[C@H](CO)NC(=O)[C@H](CC(=O)O)NC(=O)[C@@H](NC(=O)[C@H](CCCCN)NC(=O)[C@@H](N)Cc1c[nH]cn1)[C@@H](C)O)C(C)C)C(N)=O [NKA, neurokinin A]			Emax [2]: 10.7%; Emax [3]: 59.3%; Emax [4]: 13.1%; Emax ([5]; COS-7, Fig 7c, IP3 activation assay, NK1R WT, ligand NKA (by identity with Fig 5a values)): 100%; Emax ([5]; COS-7, Fig 5a, IP3 assay, NK1R WT in COS7 cells): 100%; Emax [6]: 109%
HKTDAFVGLM-NH2 [Ala5]	25.9		
HATDSFVGLM-NH2 [Ala2]	0.68		
HKTDSFVGLA-NH2 [Ala10]	31.9		
Ala9: NKA variant of the alanine scan, alanine in position 9 (HKTDSFVGAM; ends and bridges not checked; UniProt P20366 98-107, looked up, variant L9A)		136	
Ala7: NKA variant of the alanine scan, alanine in position 7 (HKTDSFAGLM; ends and bridges not checked; UniProt P20366 98-107, looked up, variant V7A)		178	
KDSFVGL(γ-lactam)M-NH2 [GR64349]			selectivity ([7]; NK2R agonist selectivity): most selective NK2R agonist reported so far; agonist character [7]: full agonist
